Two substances from patent US20240076630A1, “METHODS FOR GENERATING NEURAL TISSUE AND USES THEREOF” (priority 2015, published 2024) can be followed below.

In this assay the test system is human brain organoids. The class given is cell-based.

As to “2,3-Dioxo-6-nitro-1,2,3,4-tetrahydrobenzo[f]quinoxaline-7-sulfonamide disodium salt [NBQX]”, under “NBQX 20 μM, n=9 units, p<0.05, two-tailed Wilcoxon signed rank test, FIG. 4D bottom panel legend”, the mean spiking rate entry is “attenuated”. The “NBQX-treated median firing rate” value (bath application of 20 μM NBQX, 95% CI 0.0023 to 0.2048, n=12 units from 4 organoids) came out at 0.0733 Hz. The “reduction of the median mean firing rate” value (bath application of 20 μM NBQX, vs baseline median firing rate 0.3800 Hz, p=0.0005, n=12 units from 4 organoids) is recorded as 81%.
Tetrodotoxin citrate [TTX]: the spike rate result is “suppressed”.
